Assay results taken from patent US20080234263A1, “Quinazoline Derivatives” (priority 2003, published 2008).

How the values were obtained:
[1] = system: KB cells (human naso-pharangeal carcinoma cells); assay: EGFR driven KB cell proliferation assay, Test (b); format: cell-based; details: 96 h, EGF 1 ng/ml, incubation for 4 days, MTT
Protocol: This assay measures the ability of a test compound to inhibit the proliferation of KB cells (human naso-pharangeal carcinoma obtained from the American Type Culture Collection (ATCC).
Following adhesion to the plate, the cells are treated with or without EGF (final concentration of 1 ng/ml) and with or without compound at a range of concentrations in dimethylsulfoxide (DMSO) (0.1% final) before incubation for 4 days. Following the incubation period, cell numbers were determined by addition of 50 μl of 3-(4,5-Dimethylthiazol-2-yl)-2,5-diphenyltetrazolium bromide ([…]) (stock 5 mg/ml) for 2 hours. MTT solution was then tipped off, the plate gently tapped dry and the cells dissolved upon the addition of 100 μl of DMSO.
Absorbance of the solubilised cells was read at 540 nm using a Molecular Devices ThermoMax microplate reader. Inhibition of proliferation was expressed as an IC50 value. […] The range of proliferation was calculated from the positive (vehicle plus EGF) and negative (vehicle minus EGF) control values.

EGFR tyrosine kinase = target: T1, EGFR tyrosine kinase (Homo sapiens, UniProt P00533); assay: Protein tyrosine kinase phosphorylation assay, Test (a); format: biochemical; details: recombinant intracellular fragment of EGFR, ATP at Km concentration; read-out: IC50 (nM) Test (a) (Inhibition of EGFR tyrosine kinase protein phosphorylation)
T1 construct: Recombinant intracellular fragments of EGFR, erbB2 and erbB4; made in house; host or cells: baculovirus/Sf21 insect cells (cleared lysate used)
T1 sequence (P00533 669-1210 limits assumed): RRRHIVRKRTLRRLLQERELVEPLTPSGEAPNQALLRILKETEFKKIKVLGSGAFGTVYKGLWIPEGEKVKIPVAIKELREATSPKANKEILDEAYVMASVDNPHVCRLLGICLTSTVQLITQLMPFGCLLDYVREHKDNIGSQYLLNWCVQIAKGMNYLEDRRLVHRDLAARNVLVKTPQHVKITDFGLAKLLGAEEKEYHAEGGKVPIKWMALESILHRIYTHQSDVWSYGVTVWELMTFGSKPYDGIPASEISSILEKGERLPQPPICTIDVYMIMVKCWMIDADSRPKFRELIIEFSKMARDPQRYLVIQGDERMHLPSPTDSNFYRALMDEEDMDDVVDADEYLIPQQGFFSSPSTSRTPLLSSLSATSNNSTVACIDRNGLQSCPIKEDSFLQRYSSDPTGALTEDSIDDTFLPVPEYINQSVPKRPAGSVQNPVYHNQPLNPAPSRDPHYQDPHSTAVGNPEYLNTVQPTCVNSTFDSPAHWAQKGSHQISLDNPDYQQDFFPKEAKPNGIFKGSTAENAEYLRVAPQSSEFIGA
Protocol: Recombinant intracellular fragments of EGFR, erbB2 and erbB4 (accession numbers X00588, X03363 and L07868 respectively) were cloned and expressed in the baculovirus/Sf21 system. Lysates were prepared from these cells by treatment with ice-cold lysis buffer (20 mM N-2-hydroxyethylpiperizine-N′-2-ethanesulfonic acid (HEPES) pH7.5, 150 mM NaCl, 10% glycerol, 1% Triton X-100, 1.5 mM MgCl2, 1 mM ethylene glycol-bis(β-aminoethyl ether) N′,N′,N′,N′-tetraacetic acid (EGTA), plus protease inhibitors and then cleared by centrifugation.
Specifically, Maxisorb™ 96-well immunoplates were coated with synthetic peptide (0.2 μg of peptide in a 100 μl phosphate buffered saline (PBS) solution and incubated at 4° C. overnight).
The immobilised phospho-peptide product of the reaction was detected by immunological methods. Firstly, plates were incubated for 90 minutes at room temperature with anti-phosphotyrosine primary antibodies that were raised in the mouse (4G10 from Upstate Biotechnology). Following extensive washing, plates were treated with Horseradish Peroxidase (HRP) conjugated sheep anti-mouse secondary antibody (NXA931 from Amersham) for 60 minutes at room temperature.
Kinase inhibition for a given compound was expressed as an IC50 value. […] The range of phosphorylation was calculated from the positive (vehicle plus ATP) and negative (vehicle minus ATP) control values.

IC50 [1] [nM] | IC50 (EGFR tyrosine kinase) [nM] | Structure (SMILES)
143 | 64 | COc1cc2ncnc(Nc3ccc(F)c(Cl)c3)c2cc1CN1CCC[C@@H]1C(=O)NCC#N [Example 20, 1-({4-[(3-Chloro-4-fluorophenyl)amino]-7-methoxyquinazolin-6-yl}methyl)-N-(cyanomethyl)-D-prolinamide]
160 | 67 | COCCN1CCN(Cc2cc3c(Nc4cccc(Cl)c4F)ncnc3cc2OC)C(C(N)=O)C1 (stereo not drawn) [Example 37, 1-({4-[(3-Chloro-2-fluorophenyl)amino]-7-methoxyquinazolin-6-yl}methyl)-4-(2-methoxyethyl)piperazine-2-carboxamide]
50 | 20 | COc1cc2ncnc(Nc3cccc(Cl)c3F)c2cc1CN1CSC[C@H]1C(N)=O [Example 24, (4R)-3-({4-[(3-Chloro-2-fluorophenyl)amino]-7-methoxyquinazolin-6-yl}methyl)-1,3-thiazolidine-4-carboxamide]
